This assay relates to P. falciparum K1 (strain resistant to chloroquine and pyrimethamine), erythrocytic stages. Nature of the assay: Plasmodium falciparum in vitro assay, [3H] hypoxanthine incorporation. It is filed as cell-based. As to conditions: Plasmodium falciparum, K1, P. falciparum strain K1; [3H] hypoxanthine incorporation; read-out: IC50 (nM) on K1. As for the experimental part: In Vitro Antimalarial Activity: Plasmodium falciparum In Vitro Assay
In vitro activity against erythrocytic stages of P. falciparum is determined using a [^3H] hypoxanthine incorporation assay. One strain resistant to chloroquine and pyrimethamine (P. falciparum K1) is used in the assays, and all test compounds are compared for activity with the standard drugs chloroquine (sigma C6628) and artemisinin (sigma-36, 159-3). Compounds are diluted in DMSO to 1 mM and added to parasite cultures incubated in RPMI 1640 medium without hypoxanthine, supplemented with HEPES (5.94 g/L), NaHCO3 (2.1 g/L), neomycin (100 U/mL), Albumax (5 g/L) and washed human red cells at 2.5% haematocrit (0.3% parasitaemia). Seven serial doubling dilutions of each compound are prepared in 96-well microtitre plates and incubated in a humidifying atmosphere at 37° C.; 4% CO2, 3% O2, 93% N2.
After 48 h, 50 μl of [3H] hypoxanthine (0.5 μCi) is added to each well of a plate. The plates are incubated for a further 24 h under the same conditions. The plates are then harvested with a Betaplate cell harvester (Wallac) and washed with distilled water. The dried filters are inserted into a plastic foil with 10 mL of scintillation fluid, and counted in a Betaplate liquid scintillation counter. IC50 values are calculated from sigmoidal inhibition curves using Microsoft Excel.

One may read the IC50 as the concentration that gives 50% inhibition.

`CN(C)C1CCN(C(=O)[C@H](Cc2ccccc2)N(Cc2ccc(-c3ccccn3)cc2)C(=O)C=Cc2ccc(Cl)nc2)CC1` [Example 14, (S)-N-[1-Benzyl-2-(4-dimethylamino-piperidin-1-yl)-2-oxo-ethyl]-3-(6-chloro-pyridin-3-yl)-N-(4-pyridin-2-yl-benzyl)-acrylamide]: the IC50 stood at 226 nM.
For `Cc1ccc(C=CC(=O)N(Cc2ccc(-c3ccccn3)cc2)[C@@H](Cc2ccccc2)C(=O)N2CCC(N(C)C)CC2)nc1` [Example 15, (S)-N-[1-Benzyl-2-(4-dimethylamino-piperidin-1-yl)-2-oxo-ethyl]-3-(5-methyl-pyridin-2-yl)-N-(4-pyridin-2-yl-benzyl)-acrylamide] the value was 163 nM.
Under `COc1ccc(C=CC(=O)N(Cc2ccc(-c3ccccn3)cc2)[C@@H](Cc2ccccc2)C(=O)N2CCC(N(C)C)CC2)cn1` [Example 16, (S)-N-[1-Benzyl-2-(4-dimethylamino-piperidin-1-yl)-2-oxo-ethyl]-3-(6-methoxy-pyridin-3-yl)-N-(4-pyridin-2-yl-benzyl)-acrylamide] stands 115 nM; under `CN(C)C1CCN(C(=O)[C@H](Cc2ccccc2)N(Cc2ccc(-c3ccccn3)cc2)C(=O)C=Cc2ccc(C(F)(F)F)cn2)CC1` [Example 17, (S)-N-[1-Benzyl-2-(4-dimethylamino-piperidin-1-yl)-2-oxo-ethyl]-N-(4-pyridin-2-yl-benzyl)-3-(5-trifluoromethyl-pyridin-2-yl)-acrylamide], 113 nM; under `Cc1c(C=CC(=O)N(Cc2ccc(-c3ccccn3)cc2)[C@@H](Cc2ccccc2)C(=O)N2CCC(N(C)C)CC2)cnn1C` [Example 18, (S)-N-[1-Benzyl-2-(4-dimethylamino-piperidin-1-yl)-2-oxo-ethyl]-3-(1,5-dimethyl-1H-pyrazol-4-yl)-N-(4-pyridin-2-yl-benzyl)-acrylamide], 273 nM.
Under `CN(C)C1CCN(C(=O)[C@H](Cc2ccccc2)N(Cc2ccc(-c3ccncc3)cc2)C(=O)C=Cc2ccn(C)n2)CC1` [Example 19, (S)-N-[1-Benzyl-2-(4-dimethylamino-piperidin-1-yl)-2-oxo-ethyl]-3-(1-methyl-1H-pyrazol-3-yl)-N-(4-pyridin-4-yl-benzyl)-acrylamide] stands 250 nM.
Take `Cc1cc(C=CC(=O)N(Cc2ccc(-c3ccncc3)cc2)[C@@H](Cc2ccccc2)C(=O)N2CCC(N(C)C)CC2)n(C)n1` [Example 20, (S)-N-[1-Benzyl-2-(4-dimethylamino-piperidin-1-yl)-2-oxo-ethyl]-3-(2,5-dimethyl-2H-pyrazol-3-yl)-N-(4-pyridin-4-yl-benzyl)-acrylamide]: the IC50 was determined as 116 nM.
Under `Cc1nn(C)c(C)c1C=CC(=O)N(Cc1ccc(-c2ccncc2)cc1)[C@@H](Cc1ccccc1)C(=O)N1CCC(N(C)C)CC1` [Example 21, (S)-N-[1-Benzyl-2-(4-dimethylamino-piperidin-1-yl)-2-oxo-ethyl]-N-(4-pyridin-4-yl-benzyl)-3-(1,3,5-trimethyl-1H-pyrazol-4-yl)-acrylamide] stands 14 nM.
For `Cc1nc(C)c(C=CC(=O)N(Cc2ccc(-c3ccncc3)cc2)[C@@H](Cc2ccccc2)C(=O)N2CCC(N(C)C)CC2)s1` [Example 22, (S)-N-[1-Benzyl-2-(4-dimethylamino-piperidin-1-yl)-2-oxo-ethyl]-3-(2,4-dimethyl-thiazol-5-yl)-N-(4-pyridin-4-yl-benzyl)-acrylamide] the value was 60 nM; for `Cc1nc(C=CC(=O)N(Cc2ccc(-c3ccncc3)cc2)[C@@H](Cc2ccccc2)C(=O)N2CCC(N(C)C)CC2)cs1` [Example 23, (S)-N-[1-Benzyl-2-(4-dimethylamino-piperidin-1-yl)-2-oxo-ethyl]-3-(2-methyl-thiazol-4-yl)-N-(4-pyridin-4-yl-benzyl)-acrylamide], 141 nM.
For the compound `Cc1noc(C)c1C=CC(=O)N(Cc1ccc(-c2ccncc2)cc1)[C@@H](Cc1ccccc1)C(=O)N1CCC(N(C)C)CC1` [Example 24, (S)-N-[1-Benzyl-2-(4-dimethylamino-piperidin-1-yl)-2-oxo-ethyl]-3-(3,5-dimethyl-isoxazol-4-yl)-N-(4-pyridin-4-yl-benzyl)-acrylamide], the IC50 amounted to 103 nM.
Consider `Cc1nc(C=CC(=O)N(Cc2ccc(-c3ccncc3)cc2)[C@@H](Cc2ccccc2)C(=O)N2CCC(N(C)C)CC2)c(C)o1` [Example 25, (S)-N-[1-Benzyl-2-(4-dimethylamino-piperidin-1-yl)-2-oxo-ethyl]-3-(2,5-dimethyl-oxazol-4-yl)-N-(4-pyridin-4-yl-benzyl)-acrylamide], for which the IC50 turned out to be 90 nM.
For `COc1ccc(C=CC(=O)N(Cc2ccc(-c3ccncc3)cc2)[C@@H](Cc2ccccc2)C(=O)N2CCC(N(C)C)CC2)nn1` [Example 26, (S)-N-[1-Benzyl-2-(4-dimethylamino-piperidin-1-yl)-2-oxo-ethyl]-3-(6-methoxy-pyridazin-3-yl)-N-(4-pyridin-4-yl-benzyl)-acrylamide] the value was 465 nM.
For `Cc1ccc(C=CC(=O)N(Cc2ccc(-c3ccncc3)cc2)[C@@H](Cc2ccccc2)C(=O)N2CCC(N(C)C)CC2)cn1` [Example 27, (S)-N-[1-Benzyl-2-(4-dimethylamino-piperidin-1-yl)-2-oxo-ethyl]-3-(6-methyl-pyridin-3-yl)-N-(4-pyridin-4-yl-benzyl)-acrylamide] the value was 67 nM; for `Cc1ccc(C=CC(=O)N(Cc2ccc(-c3ccncc3)cc2)[C@@H](Cc2ccccc2)C(=O)N2CCC(N(C)C)CC2)nc1` [Example 28, (S)-N-[1-Benzyl-2-(4-dimethylamino-piperidin-1-yl)-2-oxo-ethyl]-3-(5-methyl-pyridin-2-yl)-N-(4-pyridin-4-yl-benzyl)-acrylamide], 81 nM.
For `COc1ccc(C=CC(=O)N(Cc2ccc(-c3ccncc3)cc2)[C@@H](Cc2ccccc2)C(=O)N2CCC(N(C)C)CC2)cn1` [Example 29, (S)-N-[1-Benzyl-2-(4-dimethylamino-piperidin-1-yl)-2-oxo-ethyl]-3-(6-methoxy-pyridin-3-yl)-N-(4-pyridin-4-yl-benzyl)-acrylamide] the value was 34 nM.
Consider `CN(C)C1CCN(C(=O)[C@H](Cc2ccccc2)N(Cc2ccc(-c3ccncc3)cc2)C(=O)C=Cc2ccc(C(F)(F)F)cn2)CC1` [Example 30, (S)-N-[1-Benzyl-2-(4-dimethylamino-piperidin-1-yl)-2-oxo-ethyl]-N-(4-pyridin-4-yl-benzyl)-3-(5-trifluoromethyl-pyridin-2-yl)-acrylamide], for which the IC50 was 34 nM.
For `Cc1c(C=CC(=O)N(Cc2ccc(-c3ccncc3)cc2)[C@@H](Cc2ccccc2)C(=O)N2CCC(N(C)C)CC2)cnn1C` [Example 31, (S)-N-[1-Benzyl-2-(4-dimethylamino-piperidin-1-yl)-2-oxo-ethyl]-3-(1,5-dimethyl-1H-pyrazol-4-yl)-N-(4-pyridin-4-yl-benzyl)-acrylamide] the value was 54 nM; for `COc1ncc(C=CC(=O)N(Cc2ccc(-c3ccncc3)cc2)[C@@H](Cc2ccccc2)C(=O)N2CCC(N(C)C)CC2)cn1` [Example 32, (S)-N-[1-Benzyl-2-(4-dimethylamino-piperidin-1-yl)-2-oxo-ethyl]-3-(2-methoxy-pyrimidin-5-yl)-N-(4-pyridin-4-yl-benzyl)-acrylamide], 298 nM.
`CC(=O)N1CCN(c2ccc(CN(C(=O)C=Cc3c(C)nn(C)c3C)[C@@H](Cc3ccccc3)C(=O)N3CCC(N(C)C)CC3)cc2)CC1` [Example 33, (S)-N-[4-(4-Acetyl-piperazin-1-yl)-benzyl]-N-[1-benzyl-2-(4-dimethylamino-piperidin-1-yl)-2-oxo-ethyl]-3-(1,3,5-trimethyl-1H-pyrazol-4-yl)-acrylamide]: the IC50 came out at 319 nM.
For `COc1ccc(C=CC(=O)N(Cc2ccc(N3CCN(C(C)=O)CC3)cc2)[C@@H](Cc2ccccc2)C(=O)N2CCC(N(C)C)CC2)cn1` [Example 34, (S)-N-[4-(4-Acetyl-piperazin-1-yl)-benzyl]-N-[1-benzyl-2-(4-dimethylamino-piperidin-1-yl)-2-oxo-ethyl]-3-(6-methoxy-pyridin-3-yl)-acrylamide] the value was 433 nM.
Under `CC(=O)N1CCN(c2ccc(CN(C(=O)C=Cc3ccc(C(F)(F)F)cn3)[C@@H](Cc3ccccc3)C(=O)N3CCC(N(C)C)CC3)cc2)CC1` [Example 35, (S)-N-[4-(4-Acetyl-piperazin-1-yl)-benzyl]-N-[1-benzyl-2-(4-dimethylamino-piperidin-1-yl)-2-oxo-ethyl]-3-(5-trifluoromethyl-pyridin-2-yl)-acrylamide] stands 317 nM.
For `Cc1nn(C)c(C)c1C=CC(=O)N(Cc1ccc(-c2cncnc2)cc1)[C@@H](Cc1ccccc1)C(=O)N1CCC(N(C)C)CC1` [Example 36, (S)-N-[1-Benzyl-2-(4-dimethylamino-piperidin-1-yl)-2-oxo-ethyl]-N-(4-pyrimidin-5-yl-benzyl)-3-(1,3,5-trimethyl-1H-pyrazol-4-yl)-acrylamide] the value was 173 nM.
With `Cc1nc(C)c(C=CC(=O)N(Cc2ccc(-c3cncnc3)cc2)[C@@H](Cc2ccccc2)C(=O)N2CCC(N(C)C)CC2)s1` [Example 37, (S)-N-[1-Benzyl-2-(4-dimethylamino-piperidin-1-yl)-2-oxo-ethyl]-3-(2,4-dimethyl-thiazol-5-yl)-N-(4-pyrimidin-5-yl-benzyl)-acrylamide], the IC50 is 279 nM.

Source of the values: patent publication US20110224210A1, “NOVEL BIS-AMIDES AS ANTI-MALARIAL AGENTS” (priority 2008, published 2011).
